Measurements reported in patent US9242937B2, “Pharmaceutically active disubstituted pyridine derivatives” (Bayer Intellectual Property GmbH, priority 2011, dated 2016).

Test system: cellular CDK9 activity (RNA Polymerase II Ser2 phosphorylation) in HCT-116 cells
Assay: RNA-Polymerase II Ser2 cellular phosphorylation assay
Type: cell-based
Settings: Homo sapiens, 72 h, normalized with tubulin, read-out: RNA Polymerase II Ser2 Phosphorylation (activity range), IC50
Experimental: HCT-116 cells (DSMZ, Braunschweig, Germany) were maintained in Mc Coy's cell culture medium+glutamine (PAN Biotech GmbH, Aidenbach, Germany) supplemented with 10% fetal calf serum (PAA Laboratories GmbH, Pasching, Austria) and grown at 37° C., 5% CO2. For the cellular phosphorylation assay, cells were seeded with 2×10^5 cells/well/1 ml in 24-well plates (Greiner Bio One, Frickenhausen, Germany; catalog #662160). The compounds of general formula (I) summarized in Table 6 were diluted from a 10 mM DMSO stock solution 1:10 in a total volume of 15 μL DMSO. After overnight incubation at 37° C./5% CO2, 1.5 μL of a compound diluted in DMSO was added to each sample well. Wells with cells and 0.15% DMSO in culture medium were used as positive controls, wells without cells and 0.15% DMSO in culture medium were used as negative controls. The cells were incubated with the compounds for 72 h at 37° C./5% CO2. […] Phosphorylation of RNA Polymerase II Ser2 and tubulin levels for normalization were analyzed afterwards with the Multi-Array technology (Meso Scale Discovery, Gaithersburg, Md., USA), a combination of antibody coupled electrochemiluminescence detection and patterned arrays. […] Finally, plates were washed three times with Tris Wash Buffer, 150 μl 2× Read Buffer (Meso Scale Discovery) were added per well and plates were analyzed immediately in a Sector Imager from Meso Scale Discovery. […]

`COc1ccccc1-c1ccnc(Nc2cccc(S(N)(=O)=O)c2)c1` [Compound D1, 3-[(4-(2-Methoxyphenyl)pyridin-2-yl)amino]benzenesulfonamide] gave an IC50 of 1 to 10 µM.
